As a reminder, the viability is a read-out of living cells in per cent, often relative to untreated cells.

The results in this text go back to publication PMC11995724, “Antibiotic target discovery by integrated phenotypic and activity-based profiling of electrophilic fragments” (Cell chemical biology, 2025).

This series is described as follows: in vitro. To be noted: human, hek293t cells.
As to `Cc1ccc(-n2c(C)cc(C(=O)CCl)c2C)cc1F` [10-C06, 2-chloro-1-[1-(3-fluoro-4-methylphenyl)-2,5-dimethyl-1H-pyrrol-3-yl]ethan-1-one], the viability at 48 h, 25 µM worked out at 0.213%.

Consider `C=CS(=O)(=O)Nc1ccccc1` [10-C07, N-phenylethene-1-sulfonamide], for which the viability at 48 h, 25 µM was found to be 30.8%. Then `Cc1cc(C)c(C(=O)CCl)c(C)c1` [10-C08, 2-chloro-1-(2,4,6-trimethylphenyl)ethan-1-one], with 97.8%; and `O=C(CCl)c1cn(-c2cccc(C(F)(F)F)c2)nn1` [10-C09, 2-chloro-1-{1-[3-(trifluoromethyl)phenyl]-1H-1,2,3-triazol-4-yl}ethan-1-one], with 2.55%; and `CCOC(=O)c1c(C)[nH]c(C)c1C(=O)CCl` [10-C10, ethyl 4-(2-chloroacetyl)-2,5-dimethyl-1H-pyrrole-3-carboxylate], with 101%.

On to `O=C(CCl)Cc1cccc(F)c1` [10-C11, 1-chloro-3-(3-fluorophenyl)propan-2-one], for which the viability at 48 h, 25 µM turned out to be 38.4%. In the case of `CCc1cccc2c(C(=O)CCl)c[nH]c12` [10-C12, 2-chloro-1-(7-ethyl-1H-indol-3-yl)ethan-1-one] it was 0.148%; in that of `O=C(CCl)c1ccc(O)cc1O` [10-C14, 2-chloro-1-(2,4-dihydroxyphenyl)ethan-1-one], 97.4%; in that of `Cn1ccnc1C(=O)CCl` [10-C15, 2-chloro-1-(1-methyl-1H-imidazol-2-yl)ethan-1-one], 67.6%.

For the compound `Cc1cc(C(=O)CCl)c(C)n1-c1ccccn1` [10-C16, 2-chloro-1-[2,5-dimethyl-1-(pyridin-2-yl)-1H-pyrrol-3-yl]ethan-1-one], the viability at 48 h, 25 µM stood at 79.6%. In the case of `O=C(CCl)C1CCC2(CC1)CC2` [10-C17, 2-chloro-1-{spiro[2.5]octan-6-yl}ethan-1-one] it was 60.1%. Take `Cc1cc(-n2c(C)cc(C(=O)CCl)c2C)no1` [10-C18, 2-chloro-1-[2,5-dimethyl-1-(5-methyl-1,2-oxazol-3-yl)-1H-pyrrol-3-yl]ethan-1-one]: the viability at 48 h, 25 µM worked out at 0.308%.

In the case of `O=C(CCl)Cc1ccc(C(F)(F)F)cc1` [10-C19, 1-chloro-3-[4-(trifluoromethyl)phenyl]propan-2-one], the viability at 48 h, 25 µM was 1.02%. Then `N#CC(C(=O)CCl)=C(c1ccc(F)cc1)N1CCOCC1` [10-C20, 4-chloro-2-[(4-fluorophenyl)(morpholin-4-yl)methylidene]-3-oxobutanenitrile], with 53.6%.

For the compound `O=C1C=CC(=O)N1CCc1ccc(F)cc1` [10-C21, 1-[2-(4-fluorophenyl)ethyl]-2,5-dihydro-1H-pyrrole-2,5-dione], the viability at 48 h, 25 µM was found to be 21.9%. Then `CCC(=O)N1CCc2cc(C(=O)CCl)ccc21` [10-C22, 1-[5-(2-chloroacetyl)-2,3-dihydro-1H-indol-1-yl]propan-1-one], with 90.5%; and `Cc1cc(C(=O)CCl)c(C)n1Cc1cccs1` [10-D03, 2-chloro-1-{2,5-dimethyl-1-[(thiophen-2-yl)methyl]-1H-pyrrol-3-yl}ethan-1-one], with 104%. Regarding `CC(C)C(=O)Nc1ccc(C(=O)CCl)cc1` [10-D04, N-[4-(2-chloroacetyl)phenyl]-2-methylpropanamide], the viability at 48 h, 25 µM was 30.8%.

Take `COC(=O)c1ccc2[nH]cc(C(=O)CCl)c2c1` [10-D05, methyl 3-(2-chloroacetyl)-1H-indole-5-carboxylate]: the viability at 48 h, 25 µM came to 3.01%. Then `CS(=O)(=O)NCCc1ccc(C(=O)CCl)cc1` [10-D06, N-{2-[4-(2-chloroacetyl)phenyl]ethyl}methanesulfonamide], with 18.3%; and `O=C1C=CC(=O)N1c1ccc2ccccc2c1` [10-D07, 1-(naphthalen-2-yl)-2,5-dihydro-1H-pyrrole-2,5-dione], with 74.4%; and `Cn1ccc(C(=O)CCl)c1` [10-D08, 2-chloro-1-(1-methyl-1H-pyrrol-3-yl)ethan-1-one], with 1.8%. Then `CC(=O)Nc1cccc(N2C(=O)C=CC2=O)c1` [10-D09, N-[3-(2,5-dioxo-2,5-dihydro-1H-pyrrol-1-yl)phenyl]acetamide], with 104%; and `COc1ccc(C(=O)CCl)cc1Cl` [10-D10, 2-chloro-1-(3-chloro-4-methoxyphenyl)ethan-1-one], with 1.84%; and `COc1ccc(S(=O)(=O)N2CCSSCC2)cc1C` [10-D11, 5-(4-methoxy-3-methylbenzenesulfonyl)-1,2,5-dithiazepane], with 105%. Then `Cc1csc(C(C#N)C(=O)CCl)n1` (stereo not drawn) [10-D12, 4-chloro-2-(4-methyl-1,3-thiazol-2-yl)-3-oxobutanenitrile], with 6.6%.

With `COCCn1c(C)cc(C(=O)CCl)c1C` [10-D13, 2-chloro-1-[1-(2-methoxyethyl)-2,5-dimethyl-1H-pyrrol-3-yl]ethan-1-one], the viability at 48 h, 25 µM is 110%. Then `CC(Cl)C(=O)c1ccc(C(C)(C)C)cc1` (stereo not drawn) [10-D14, 1-(4-tert-butylphenyl)-2-chloropropan-1-one], with 77.6%; and `O=C1C=CC(=O)N1c1ccc(F)c(Cl)c1` [10-D15, 1-(3-chloro-4-fluorophenyl)-2,5-dihydro-1H-pyrrole-2,5-dione], with 79.2%; and `O=C(CCl)c1cc(Cl)sc1Cl` [10-D16, 2-chloro-1-(2,5-dichlorothiophen-3-yl)ethan-1-one], with 1.77%. `O=C1C=CC(=O)N1c1ccccc1F` [10-D17, 1-(2-fluorophenyl)-2,5-dihydro-1H-pyrrole-2,5-dione]: the viability at 48 h, 25 µM amounted to 90.3%. Consider `Cc1cc(C(=O)CCl)c(C)n1-c1ccc(Cl)c(Cl)c1` [10-D18, 2-chloro-1-[1-(3,4-dichlorophenyl)-2,5-dimethyl-1H-pyrrol-3-yl]ethan-1-one], for which the viability at 48 h, 25 µM was 0.282%. In the case of `CS(=O)(=O)Nc1ccc(C(=O)CCl)cc1` [10-D19, N-[4-(2-chloroacetyl)phenyl]methanesulfonamide] it was 76.6%; in that of `O=C(CCl)Cc1c(F)cccc1Cl` [10-D20, 1-chloro-3-(2-chloro-6-fluorophenyl)propan-2-one], 37%. Then `O=C(Nc1ccc(F)cc1)N1CCSSCC1` [10-D21, N-(4-fluorophenyl)-1,2,5-dithiazepane-5-carboxamide], with 84%; and `COC(=O)c1c(C)[nH]c(C(=O)C(C)Cl)c1C` (stereo not drawn) [10-D22, methyl 5-(2-chloropropanoyl)-2,4-dimethyl-1H-pyrrole-3-carboxylate], with 83.7%; and `CC(C)Oc1ccc2[nH]cc(C(=O)CCl)c2c1` [10-E03, 2-chloro-1-[5-(propan-2-yloxy)-1H-indol-3-yl]ethan-1-one], with 0.825%.

For `Cc1cc(C)cc(-n2c(C)cc(C(=O)CCl)c2C)c1` [10-E04, 2-chloro-1-[1-(3,5-dimethylphenyl)-2,5-dimethyl-1H-pyrrol-3-yl]ethan-1-one], the viability at 48 h, 25 µM is 19.1%.

As to `O=C(CCl)c1c(-c2ccccc2)[nH]c2ccccc12` [10-E05, 2-chloro-1-(2-phenyl-1H-indol-3-yl)ethan-1-one], the viability at 48 h, 25 µM was 14.1%.

As for `Cc1cc(C(=O)C(C)Cl)c(C)n1Cc1ccco1` (stereo not drawn) [10-E06, 2-chloro-1-{1-[(furan-2-yl)methyl]-2,5-dimethyl-1H-pyrrol-3-yl}propan-1-one], the viability at 48 h, 25 µM was found to be 105%. Regarding `CSc1ccc(C(=O)CCl)cc1` [10-E07, 2-chloro-1-[4-(methylsulfanyl)phenyl]ethan-1-one], the viability at 48 h, 25 µM was 1.88%. Then `CC(C)C(=O)Nc1ccc(C(=O)C(C)Cl)cc1` (stereo not drawn) [10-E08, N-[4-(2-chloropropanoyl)phenyl]-2-methylpropanamide], with 100%; and `O=C(CCl)c1ccc2c(c1)CCN(C(=O)C(F)(F)F)C2` [10-E09, 1-[6-(2-chloroacetyl)-1,2,3,4-tetrahydroisoquinolin-2-yl]-2,2,2-trifluoroethan-1-one], with 4.03%. Then `Cc1cc(C(=O)C(C)Cl)c(C)n1-c1ccc(OC(F)F)cc1` (stereo not drawn) [10-E10, 2-chloro-1-{1-[4-(difluoromethoxy)phenyl]-2,5-dimethyl-1H-pyrrol-3-yl}propan-1-one], with 84.6%; and `O=C(CCl)C1CCCC2(CC2)C1` (stereo not drawn) [10-E11, 2-chloro-1-{spiro[2.5]octan-5-yl}ethan-1-one], with 79.6%. In the case of `CCn1c(-c2ccccc2)c(C(=O)CCl)c2ccccc21` [10-E12, 2-chloro-1-(1-ethyl-2-phenyl-1H-indol-3-yl)ethan-1-one] it was 0.509%; in that of `CCn1ncc(C(=O)CCl)n1` [10-E13, 2-chloro-1-(2-ethyl-2H-1,2,3-triazol-4-yl)ethan-1-one], 87.2%; in that of `Cn1c(N)c(C(=O)CCl)c(=O)n(C)c1=O` [10-E14, 6-amino-5-(2-chloroacetyl)-1,3-dimethyl-1,2,3,4-tetrahydropyrimidine-2,4-dione], 89.9%.

On to `O=C(CCl)Cc1ccc(Cl)c(Cl)c1` [10-E15, 1-chloro-3-(3,4-dichlorophenyl)propan-2-one], for which the viability at 48 h, 25 µM was determined as 1.56%. Then `O=C(CCl)c1cc(Cl)ccc1Cl` [10-E16, 2-chloro-1-(2,5-dichlorophenyl)ethan-1-one], with 4.26%.

With `O=C(CCl)Cc1cccc(Cl)c1` [10-E17, 1-chloro-3-(3-chlorophenyl)propan-2-one], the viability at 48 h, 25 µM was 1.29%. Consider `CCS(=O)(=O)N1CCc2cc(C(=O)CCl)ccc21` [10-E18, 2-chloro-1-[1-(ethanesulfonyl)-2,3-dihydro-1H-indol-5-yl]ethan-1-one], for which the viability at 48 h, 25 µM stood at 1.16%. Then `O=C(CCl)Cc1ccc(F)cc1Cl` [10-E19, 1-chloro-3-(2-chloro-4-fluorophenyl)propan-2-one], with 1.31%; and `O=C1C=CC(=O)N1CCc1ccccc1` [10-E20, 1-(2-phenylethyl)-2,5-dihydro-1H-pyrrole-2,5-dione], with 4.04%.
